Where two headings read alike, the source gives them in different places.
How the values were obtained:
[1] = biological target: T1, hmGlu1 (Homo sapiens, UniProt Q13255); assay: Calcium mobilization mGlu1 PAM assay; assay type: cell-based; conditions: for Fold selective versus mGlu4: mGlu4 EC50 / mGlu1 EC50; for mGlu1 agonism / PAM profile: agonism at concentrations above 10 µM
[2] = biological target: mGlu5 (Homo sapiens, UniProt P41594); assay: Activity at mGlu5; assay type: cell-based
[3] = Rat brain homogenate binding; assay type: in vitro ADME
[4] = In vitro predicted hepatic clearance, rat hepatic microsomes; assay type: in vitro ADME
[5] = In vitro predicted hepatic clearance, human hepatic microsomes; assay type: in vitro ADME
[6] = cited from earlier work
[7] = biological target: T1, hmGlu1; conditions: cited from earlier work
[8] = human; cited from earlier work
[9] = rat; cited from earlier work

T1 sequence (Q13255 19-1194): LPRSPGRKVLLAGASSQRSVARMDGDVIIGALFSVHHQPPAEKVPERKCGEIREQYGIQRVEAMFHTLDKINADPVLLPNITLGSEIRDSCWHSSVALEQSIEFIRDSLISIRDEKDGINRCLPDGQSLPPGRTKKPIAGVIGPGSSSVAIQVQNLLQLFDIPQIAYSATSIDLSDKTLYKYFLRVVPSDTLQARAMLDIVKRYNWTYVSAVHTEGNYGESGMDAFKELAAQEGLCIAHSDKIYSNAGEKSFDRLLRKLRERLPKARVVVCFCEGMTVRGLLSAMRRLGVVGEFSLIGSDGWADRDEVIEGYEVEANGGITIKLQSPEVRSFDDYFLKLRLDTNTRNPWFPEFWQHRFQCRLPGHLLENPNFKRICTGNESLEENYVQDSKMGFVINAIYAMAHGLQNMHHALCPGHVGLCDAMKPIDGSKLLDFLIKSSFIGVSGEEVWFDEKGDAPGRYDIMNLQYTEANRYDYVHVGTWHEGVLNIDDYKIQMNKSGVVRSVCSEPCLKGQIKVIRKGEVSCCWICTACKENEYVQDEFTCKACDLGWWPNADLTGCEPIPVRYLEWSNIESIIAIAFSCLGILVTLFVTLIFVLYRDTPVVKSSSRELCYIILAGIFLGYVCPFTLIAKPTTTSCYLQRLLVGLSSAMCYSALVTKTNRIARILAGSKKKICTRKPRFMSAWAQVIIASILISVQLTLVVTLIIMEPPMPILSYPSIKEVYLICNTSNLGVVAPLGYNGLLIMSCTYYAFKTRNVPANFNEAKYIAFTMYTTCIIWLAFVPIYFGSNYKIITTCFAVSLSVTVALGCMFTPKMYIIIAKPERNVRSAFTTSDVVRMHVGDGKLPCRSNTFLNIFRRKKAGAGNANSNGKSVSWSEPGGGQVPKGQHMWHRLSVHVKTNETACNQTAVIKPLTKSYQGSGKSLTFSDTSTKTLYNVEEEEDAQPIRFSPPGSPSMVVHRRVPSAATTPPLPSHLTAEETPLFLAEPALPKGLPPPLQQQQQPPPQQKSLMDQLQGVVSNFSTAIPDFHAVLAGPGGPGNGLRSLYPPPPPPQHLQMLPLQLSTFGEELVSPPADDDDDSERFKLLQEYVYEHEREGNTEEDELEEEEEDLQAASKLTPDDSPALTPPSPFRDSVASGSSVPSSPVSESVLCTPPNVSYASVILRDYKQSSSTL
Chain of mGlu5 (P41594 21-1212): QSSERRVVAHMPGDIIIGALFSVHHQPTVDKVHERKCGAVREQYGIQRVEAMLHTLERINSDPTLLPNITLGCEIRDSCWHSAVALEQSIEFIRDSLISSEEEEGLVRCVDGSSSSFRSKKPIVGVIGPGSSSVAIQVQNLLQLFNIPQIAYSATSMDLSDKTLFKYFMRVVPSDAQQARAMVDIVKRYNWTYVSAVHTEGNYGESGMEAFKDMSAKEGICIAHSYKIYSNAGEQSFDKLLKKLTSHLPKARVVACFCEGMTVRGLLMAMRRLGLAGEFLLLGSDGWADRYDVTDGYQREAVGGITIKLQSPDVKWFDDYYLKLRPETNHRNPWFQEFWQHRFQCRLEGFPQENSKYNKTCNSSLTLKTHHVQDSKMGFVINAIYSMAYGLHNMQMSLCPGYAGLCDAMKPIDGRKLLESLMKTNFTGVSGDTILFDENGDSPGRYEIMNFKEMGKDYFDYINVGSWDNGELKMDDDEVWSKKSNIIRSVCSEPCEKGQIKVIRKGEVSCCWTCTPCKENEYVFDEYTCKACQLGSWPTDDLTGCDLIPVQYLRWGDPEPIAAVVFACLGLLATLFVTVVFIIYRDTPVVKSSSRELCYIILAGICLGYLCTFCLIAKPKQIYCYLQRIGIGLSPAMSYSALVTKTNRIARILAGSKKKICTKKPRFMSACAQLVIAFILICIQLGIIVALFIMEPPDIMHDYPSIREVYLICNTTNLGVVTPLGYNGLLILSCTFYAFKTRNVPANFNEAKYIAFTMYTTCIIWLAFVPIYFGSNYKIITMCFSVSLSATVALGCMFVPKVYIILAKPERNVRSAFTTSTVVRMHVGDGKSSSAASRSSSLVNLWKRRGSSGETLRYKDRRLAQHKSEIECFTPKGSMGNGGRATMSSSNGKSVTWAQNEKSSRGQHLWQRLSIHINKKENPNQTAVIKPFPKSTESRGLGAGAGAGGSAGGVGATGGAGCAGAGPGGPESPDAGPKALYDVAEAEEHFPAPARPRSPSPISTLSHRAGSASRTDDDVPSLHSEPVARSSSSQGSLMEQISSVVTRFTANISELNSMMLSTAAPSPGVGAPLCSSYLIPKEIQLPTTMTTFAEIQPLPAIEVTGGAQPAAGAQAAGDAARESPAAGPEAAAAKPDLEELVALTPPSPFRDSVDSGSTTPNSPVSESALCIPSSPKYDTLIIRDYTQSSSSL

For `Cc1ccoc1C(=O)Nc1ccc(N2C(=O)c3ccccc3C2=O)cc1` [10a], the “Fold selective versus mGlu4” value [1] was >208 fold.
For `Cc1ccoc1C(=O)Nc1ccc(N2C(=O)c3ccccc3C2=O)nc1` [11a], the “Fold selective versus mGlu4” value [1] was >25.8 fold.
With `Cc1ccoc1C(=O)Nc1cnc(N2C(=O)c3ccccc3C2=O)nc1` [11e] the “mGlu1 versus mGlu4 PAM potency” value [1] was “equipotent”.
For `Cc1ccoc1C(=O)Nc1cnc(N2C(=O)c3cccc(F)c3C2=O)nc1` [11h], the “mGlu1 versus mGlu4 PAM potency” value [1] was “equipotent” and the “Fold selective versus mGlu4” value [1] was >1.88 fold.
With `Cc1ccoc1C(=O)Nc1ccc(N2C(=O)c3ccccc3C2=O)cc1F` [12a] the “activity at mGlu5” value [2] was “no activity”, the fraction unbound [3] was < 0.01 and the “predicted hepatic clearance CLHEP” value [4] was 48.5 mL/min/kg. The “mGlu1 agonism / PAM profile” value [1] was “did not show any observable agonistic effect”, the “Fold selective versus mGlu4” value [1] was >793 fold and the “predicted hepatic clearance CLHEP” value [5] was 9.65 mL/min/kg.
In the case of `Cc1ccoc1C(=O)Nc1ccc(N2C(=O)c3ccccc3C2=O)cc1Cl` [12b], the “activity at mGlu5” value [2] is reported as “no activity”, the fraction unbound [3] is reported as < 0.01 and the “predicted hepatic clearance CLHEP” value [4] is reported as 48.7 mL/min/kg. For the same compound, the “mGlu1 agonism / PAM profile” value [1] was “did not show any observable agonistic effect”, the “Fold selective versus mGlu4” value [1] was >344 fold and the “predicted hepatic clearance CLHEP” value [5] was 9.25 mL/min/kg.
In the case of `COc1cc(N2C(=O)c3ccccc3C2=O)ccc1NC(=O)c1occc1C` [12e], the “Fold selective versus mGlu4” value [1] is reported as >30.3 fold.
In the case of `Cc1ccoc1C(=O)Nc1ccc(N2C(=O)c3cccc(F)c3C2=O)c(Cl)c1` [compound 4], the “Kp (CNS penetration)” value [6] is given as 1.02, the CLp ([6]; rat PK) is given as 13.3 mL/min/kg and the mGlu1 agonism ([7]; at concentrations above 10 µM, previously observed with parent compound) is given as “considerable agonism”. For the same compound, the “selectivity versus mGlu4” value [7] was 35 fold, the free fraction fu [8] was 0.05 and the free fraction fu [9] was 0.03.
